The results in this text go back to US10576145B2, “CD200 inhibitors and methods of use thereof” (REGENTS OF THE UNIVERSITY OF MINNESOTA, priority 2014, dated 2020).

Entries after “also recorded” stand apart in the source; their conditions may differ.

This experiment deals with GL261 tumor bearing mice. The experiment is described as follows: OVA+Poly:ICLC vaccination of GL261 tumor bearing mice +/- CD200R antagonist: OVA-specific CD8 T cells and recall cytokines. The class given is in vivo, C57BL/6 mice. The note with it: for SIINFEKL-specific CD8 T cells (OVA-specific T cell expansion): blood, flow cytometry. An excerpt:
FIGS. 2A-2B. FIG. 2A) Vaccination scheme. Tumor bearing or non-tumor bearing mice were vaccinated on day 2 and 8 with an agonist (4012) or antagonist (6059) only, and on days 3-6 and 10 with OVA+Poly:ICLC+/−the competitive inhibitor 6059 (antagonist of a agonist). FIG. 2B) Mice were bled on day 10, whole blood was stained with an anti-CD8 and SI[[N]]INFEKL (SEQ ID NO: 11) specific detramer, lysed and analyzed by flow cytometry.
FIGS. 3A-3B. Tumor bearing or non-tumor bearing mice were vaccinated on day 2 and 8 with an agonist or antagonist only, and on days 3-6 and 10 with OVA+Poly:ICLC+/−the competitive inhibitor 6059 (antagonist of a agonist). On day 10, were harvested and stimulated with OVA protein to measure a recall response via cytokine release. FIG. 3A) TNF alpha (PG/ML) levels from tumor bearing mice. FIG. 3B) INF gamma (PG/ML) levels in tumor bearing mice.
FIGS. 12A-12C. […] Tumor and non-tumor bearing mice were vaccinated with OVA+Poly:ICLC+/−the CD200R antagonist 6059 and analyzed for FIG. 12A) SIINFEKL/Kb+CD8+ T cell expansion (‘SIINFEKL’ disclosed as SEQ ID NO: 11). FIG. 12B) Lymphocytes were harvested and stimulated with SIINFEKL peptide (SEQ ID NO: 11). Supernatants were analyzed for TNFα and IFNγ secretion. FIG. 12C) The antagonist 6059 was added to OVA+exosomes. Error bars indicate +/−SEM (n=4/group; *P<0.05; by t-test). FIGS. 12A-12C discloses ‘SIINFEKL’ disclosed as SEQ ID NO: 11.
FIGS. 18A-18D. […] (FIG. 18A & FIG. 18B) Tumor bearing mice were vaccinated with OVA+Poly:ICLC+/−antagonist then analyzed for OVA-specific T cells and cytokine production following in vitro restimulation with OVA. Tumor bearing mice were vaccinated with saline (n=10), tumor lysate+CpG (n=10) or tumor lysate+CpG+antagonist 6059 (n=10). (FIG. 18C) Mice were imaged weekly for tumor growth and (FIG. 18D) followed for survival. Error bars are ±SEM, *p<0.05, ** p<0.001 was determined by one-way ANOVA, post hoc analysis by Dunn's multiple comparison test, log-rank analysis was used for survival. […]
Anti-mouse CD8α-Pacific Blue (clone 53-6.7) was purchased from eBioscience. A SIINFEKL/K^b dextramer-PE (‘SIINFEKL’ disclosed as SEQ ID NO: 11) was used for detection of SIINFEKL/K^b-binding CD8 T-cells (Immunodex) (‘SIINFEKL’ disclosed as BEQ ID NO: 11). […] A 100 μl sample of whole blood was immediately analyzed for percentage of MDSCs ((Lineage-FITC (CD3, CD14, CD16, CD19, CD20, CD56) CD33-APC, HLA-DR-PerCp)) by flow cytometry. Sera CD200 levels were determined by ELISA (Sino Biological Inc.).
Lymph nodes were homogenized in RPMI media containing 10% FBS, penicillin/streptomycin (100 U/ml), and 0.1 mg/ml Normocin (Invivogen). […] Fifty microliters of supernatant was analyzed for IFN-γ using a flow cytometric bead array according to the manufacturer's protocol (BD Biosciences).
Background: Flow cytometry measures light scatter and fluorescence of single cells or particles in a stream.

In the case of NTIGDGGCY [Antagonist 6059], where the note is “prime boost model, tumor-bearing mice”, the “Suppressive effects of the tumor environment (overall statement)” value is on record as “reversed the suppressive effects in tumor-bearing mice; also recorded: reverses the suppressive effects of the tumor environment; also recorded: blocks CD200 induced immune suppression”. Moreover, the “SIINFEKL-specific CD8 T cells (OVA-specific T cell expansion)” value runs as follows: (tumor bearing mice, OVA+Poly:ICLC +/- antagonist) “reversed tumor induced suppression; also recorded: increased numbers of SIINFEKL-specific CD8 T-cells; also recorded: reversed the suppressive effects of the tumor microenvironment”; (tumor bearing mice, OVA+Poly:ICLC +/- antagonist, listed as CD200 antagonist) “significantly enhanced the expansion of a SIINFEKL/CD8 T cell population”. Also, under “tumor bearing mice, OVA+Poly:ICLC +/- antagonist, restimulation with OVA/SIINFEKL, 48 hrs”, the “TNFα and IFNγ production after restimulation of cervical lymph node lymphocytes (recall response)” value was “modulate/reverse glioma-induced suppression; also recorded: significantly enhanced TNFγ and IFNγ production; also recorded: reversed the suppressive effects of the tumor microenvironment”.
